From patent US20130190289A1, “COMPOUNDS AND METHODS FOR THE TREATMENT OR PREVENTION OF FLAVIVIRUS INFECTIONS” (priority 2010, published 2013)
Like-named read-outs stand apart in the source and are kept apart here.

Legend:
[1] = tested on: HCV replicon (genotype 1b) in Huh7 cell line ET; assay: microbe, parasite or virus in culture; format: cell-based, HCV genotype 1b; conditions: Hepatitis C virus
[2] = [3H]Thymidine incorporation assay (cell toxicity); conditions: human
[3] = Huh-7, read-out: HCV-Replicon-(Luci-ET) 1b_IC50
[4] = Huh-7, 96 h, read-out: HCV-Replicon (Luci-ET)-1b_IC50

Row | SMILES | IC50 [1, 3] [µM] | CC50 at 72 h [2] [µM] | IC50 [1, 4] [µM]
1 | COC1CCN(C(=O)C[C@H](C)N(c2cc(C#CC(C)(C)C)sc2C(=O)O)C(=O)[C@H]2CC[C@H](C)CC2)CC1 [Compound 115, 5-(3,3-Dimethylbut-1-ynyl)-3-[[(1S)-3-(4-methoxy-1-piperidyl)-1-methyl-3-oxo-propyl]-(trans-4-methylcyclohexanecarbonyl)amino]thiophene-2-carboxylic acid] | < 0.1 | > 100 | 
2 | C[C@H]1CC[C@H](C(=O)N(CC(=O)N2CCOCC2)c2cc(-c3ccccc3)sc2C(=O)O)CC1 [Compound 121, 3-[(trans-4-methylcyclohexanecarbonyl)-N-(2-morpholino-2-oxoethyl)amino]-5-phenylthiophene-2-carboxylic acid] |  | > 100 | 1 to 10
3 | CCC1CCC(C(=O)N(c2cc(C#CC(C)(C)C)sc2C(=O)O)[C@@H](COC)C(=O)N2CCCC2)CC1 (stereo partly drawn) [Compound 63, 5-(3,3-Dimethylbut-1-ynyl)-3-[(4-ethylcyclohexanecarbonyl)-[(1S)-1-(methoxymethyl)-2-oxo-2-pyrrolidin-1-yl-ethyl]amino]thiophene-2-carb oxylic acid] | 0.1 to 1 | 10 to 100 | 
4 | COC1CN(C(=O)[C@H](C)N(c2cc(C#CC(C)(C)C)sc2C(=O)O)C(=O)[C@H]2CC[C@H](C)CC2)C1 [Compound 52, 5-(3,3-Dimethylbut-1-ynyl)-3-[[(1S)-2-(3-methoxyazetidin-1-yl)-1-methyl-2-oxo-ethyl]-(trans-4-methylcyclohexanecarbonyl)amino]thiophene-2-carboxylic acid] | < 0.1 | > 100 | 
5 | C[C@@H](CC(=O)N(C)C1CCN(C)CC1)N(c1cc(C#CC(C)(C)C)sc1C(=O)O)C(=O)[C@H]1CC[C@H](C)CC1 [Compound 113, 5-(3,3-Dimethylbut-1-ynyl)-3-[(trans-4-methylcyclohexanecarbonyl)-[(1S)-1-methyl-3-[methyl-(1-methyl-4-piperidyl)amino]-3-oxo-propyl]amino]thiophene-2-carboxylic acid] | < 0.1 | > 100 | 
6 | C[C@@H](C(=O)NC1CCOC1)N(c1cc(C#CC(C)(C)C)sc1C(=O)O)C(=O)[C@H]1CC[C@H](C)CC1 (stereo partly drawn) [Compound 30, 5-(3,3-Dimethylbut-1-ynyl)-3-[(trans-4-methylcyclohexanecarbonyl)-[(1S)-1-methyl-2-oxo-2-(tetrahydrofuran-3-ylamino)ethyl]amino]thiophene-2-carboxylic acid] | < 0.1 | > 100 | 
7 | CO[C@H](C)[C@@H](C(=O)N1CCOCC1)N(c1cc(C#CC(C)(C)C)sc1C(=O)O)C(=O)[C@H]1CC[C@H](C)CC1 [Compound 58, 5-(3,3-Dimethylbut-1-ynyl)-3-[[(1S,2R)-2-methoxy-1-(morpholine-4-carbonyl)propyl]-(trans-4-methylcyclohexanecarbonyl)amino]thiophene-2-carboxylic acid] | < 0.1 | > 100 | 
8 | CC(CC(=O)N(C)C)N(c1cc(C#CC(C)(C)C)sc1C(=O)O)C(=O)[C@H]1CC[C@H](C)CC1 (relative stereo) [Compound 99, 3-[[3-(Dimethylamino)-1-methyl-3-oxo-propyl]-(trans-4-methylcyclohexanecarbonyl)amino]-5-(3,3-dimethylbut-1-ynyl)thiophene-2-carboxylic acid] | < 0.1 | 10 to 100 | 
9 | C[C@@H](CC(=O)N1CCOCC1)N(c1cc(C#CC(C)(C)C)sc1C(=O)O)C(=O)[C@H]1CC[C@H](C)CC1 [Compound 105, 5-(3,3-Dimethylbut-1-ynyl)-3-[(trans-4-methylcyclohexanecarbonyl)-[(1S)-1-methyl-3-morpholino-3-oxo-propyl]amino]thiophene-2-carboxylic acid] | < 0.1 | > 100 | 
10 | COC1CCN(C(=O)[C@H](C)N(c2cc(C#CC(C)(C)C)sc2C(=O)O)C(=O)[C@H]2CC[C@H](C)CC2)CC1 [Compound 53, 5-(3,3-Dimethylbut-1-ynyl)-3-[[(1S)-2-(4-methoxy-1-piperidyl)-1-methyl-2-oxo-ethyl]-(trans-4-methylcyclohexanecarbonyl)amino]thiophene-2-carboxylic acid] | < 0.1 | > 100 | 
11 | CCN(CC)C(=O)[C@H](C)N(c1cc(C#CC(C)(C)C)sc1C(=O)O)C(=O)[C@H]1CC[C@H](C)CC1 [Compound 8, 3-[[(1S)-2-(diethylamino)-1-methyl-2-oxo-ethyl]-(trans-4-methylcyclohexanecarbonyl)amino]-5-(3,3-dimethylbut-1-ynyl)thiophene-2-carboxylic acid] | < 0.1 | > 100 | 
12 | Cc1ccc(C(=O)N(CC(=O)N2CCOCC2)c2cc(C#CC(C)(C)C)sc2C(=O)O)cc1 [Compound 125, 5-(3,3-dimethylbut-1-ynyl)-3-[(4-methylbenzoyl)-(2-morpholino-2-oxo-ethyl)amino]thiophene-2-carboxylic acid] |  | > 100 | 0.1 to 1
13 | CC[C@@H](C(=O)N1CCCOCC1)N(c1cc(C#CC(C)(C)C)sc1C(=O)O)C(=O)[C@H]1CC[C@H](C)CC1 [Compound 84, 5-(3,3-Dimethylbut-1-ynyl)-3-[(trans-4-methylcyclohexanecarbonyl)-[(1S)-1-(1,4-oxazepane-4-carbonyl)propyl]amino]thiophene-2-carboxylic acid] | < 0.1 | 10 to 100 | 
14 | CC(C)C#Cc1cc(N(CC(=O)N2CCNCC2)C(=O)C2CCC(C)CC2)c(C(=O)O)s1 (centres unmarked) [Compound 69] | < 0.1 | > 100 | 
15 | COC1CN(C(=O)C[C@H](C)N(c2cc(C#CC(C)(C)C)sc2C(=O)O)C(=O)[C@H]2CC[C@H](C)CC2)C1 [Compound 116, 5-(3,3-Dimethylbut-1-ynyl)-3-[[(1S)-3-(3-methoxyazetidin-1-yl)-1-methyl-3-oxo-propyl]-(trans-4-methylcyclohexanecarbonyl)amino]thiophene-2-carboxylic acid] | < 0.1 | > 100 | 
16 | C[C@@H](C(=O)N1CCC(O)CC1)N(c1cc(C#CC(C)(C)C)sc1C(=O)O)C(=O)[C@H]1CC[C@H](C)CC1 [Compound 20, 5-(3,3-Dimethylbut-1-ynyl)-3-[[(1S)-2-(4-hydroxy-1-piperidyl)-1-methyl-2-oxo-ethyl]-(trans-4-methylcyclohexanecarbonyl)amino]thiophene-2-carboxylic acid] | < 0.1 | > 100 | 
17 | CC(C)N1CC[C@@H](N(c2cc(C#CC(C)(C)C)sc2C(=O)O)C(=O)[C@H]2CC[C@H](C)CC2)C1=O [Compound 141, 5-(3,3-dimethylbut-1-ynyl)-3-[[(3R)-1-isopropyl-2-oxo-pyrrolidin-3-yl]-(trans-4-methylcyclohexanecarbonyl)amino]thiophene-2-carboxylic acid] |  | > 100 | < 0.1
18 | C[C@H](CC(=O)N1CCOCC1)N(c1cc(C#CC(C)(C)C)sc1C(=O)O)C(=O)[C@H]1CC[C@H](C)CC1 [Compound 106, 5-(3,3-Dimethylbut-1-ynyl)-3-[(trans-4-methylcyclohexanecarbonyl)-[(1R)-1-methyl-3-morpholino-3-oxo-propyl]amino]thiophene-2-carboxylic acid] | < 0.1 | > 100 | 
19 | CC(C(=O)N(C)C)N(c1cc(C#CC(C)(C)C)sc1C(=O)O)C(=O)[C@H]1CC[C@H](C)CC1 (relative stereo) [Compound 7, 5-(3,3-Dimethyl-but-1-ynyl)-3-[(1-dimethylcarbamoyl-ethyl)-(trans-4-methyl-cyclohexanecarbonyl)-amino]-thiophene-2-carboxylic acid] | < 0.1 | 10 to 100 | 
20 | CCOC[C@@H](C(=O)N1CCOCC1)N(c1cc(C#CC(C)(C)C)sc1C(=O)O)C(=O)[C@H]1CC[C@H](C)CC1 [Compound 87, 5-(3,3-Dimethylbut-1-ynyl)-3-[[(1S)-1-(ethoxymethyl)-2-morpholino-2-oxo-ethyl]-(trans-4-methylcyclohexanecarbonyl)amino]thiophene-2-carboxylic acid] | < 0.1 | > 100 | 
21 | C[C@@H](C(=O)N1CC[C@H](CO)C1)N(c1cc(C#CC(C)(C)C)sc1C(=O)O)C(=O)[C@H]1CC[C@H](C)CC1 [Compound 39, 5-(3,3-Dimethylbut-1-ynyl)-3-[[(1S)-2-[(3S)-3-(hydroxymethyl)pyrrolidin-1-yl]-1-methyl-2-oxo-ethyl]-(trans-4-methylcyclohexanecarbonyl)amino]thiophene-2-carboxylic acid] | < 0.1 | > 100 | 
22 | CC1CCC(C(=O)N(c2cc(C#CC(C)(C)C)sc2C(=O)O)[C@@H]2CCN(C)C2=O)CC1 (single isomer, unassigned) [Compound 92] | < 0.1 | > 100 | 
23 | COCCN(C)C(=O)[C@H](C)N(c1cc(C#CC(C)(C)C)sc1C(=O)O)C(=O)[C@H]1CC[C@H](C)CC1 [Compound 38, 5-(3,3-Dimethylbut-1-ynyl)-3-[[(1S)-2-[2-methoxyethyl(methyl)amino]-1-methyl-2-oxo-ethyl]-(trans-4-methylcyclohexanecarbonyl)amino]thiophene-2-carboxylic acid] | < 0.1 | > 100 | 
24 | CN1CCOC[C@H](N(C(=O)c2ccc(Cl)cc2Cl)c2cc(C#CC(C)(C)C)sc2C(=O)O)C1=O [Compound 147, (S)-5-(3,3-Dimethylbut-1-ynyl)-3-[(2,4-dichlorobenzoyl)-N-(4-methyl-5-oxo-1,4-oxazepan-6-yl)amino]thiophene-2-carboxylic acid] |  | > 100 | 0.1 to 1
25 | C[C@@H](C(=O)N1CC[C@H](O)C1)N(c1cc(C#CC(C)(C)C)sc1C(=O)O)C(=O)[C@H]1CC[C@H](C)CC1 [Compound 29, 5-(3,3-Dimethylbut-1-ynyl)-3-[[(1S)-2-[(3S)-3-hydroxypyrrolidin-1-yl]-1-methyl-2-oxo-ethyl]-(trans-4-methylcyclohexanecarbonyl)amino]thiophene-2-carboxylic acid] | < 0.1 | > 100 | 
